Like-named read-outs stand apart in the source and are kept apart here.
Legend:
two-spotted mites = two-spotted mites on bean plants, spray, mortality after two days; format: in vivo; conditions: Tetranychus urticae, 48 h, read-out: % Mortality (2 days)
Description: Mortality was evaluated two days after spraying.
Mortality after two days is set forth below.

Venturia inaequalis [1] = experiment: apple scab preventive test; format: in vivo; conditions: 10-12 days
Description: (§1) Compounds of this invention are dissolved in acetone in an amount equal to 6% of the final volume and then suspended at a concentration of 20 ppm in purified water containing 25 ppm of the surfactant Alkanol® XC (sodium alkyl naphthalene sulfonate). This suspension is sprayed to the point of run-off on apple seedlings. The following day, the plants are inoculated with a spore suspension of the fungus Venturia inaequalis and incubated in a growth room for 10-12 days. Disease ratings are then made. […] Phytotoxicity in the form of foliar burn was observed on some of the plants in association with disease control.

Venturia inaequalis [2] = experiment: apple scab residual wash-off test; format: in vivo; conditions: 1/2 inch simulated rainfall, 10-12 days
Description: as §1, with “day, 1/2 inch of simulated rainfall is applied to the foliage of the plants. When the foliage is dry,” for “day,”, “on” for “on some of”

Venturia inaequalis [3] = experiment: apple scab photostability test; format: in vivo; conditions: xenon arc 3500 foot candles 16 hours, 10-12 days
Description: as §1, with “seedlings. When the foliage is dry, the plants are exposed to 3500 foot candles of light from a xenon arc source for a period of 16 hours. This light source approximates the spectrum of natural sunlight, and is used to assess photostability of the compounds of this invention on plant foliage.” for “seedlings.”

Erysiphe cichoracearum [4] = experiment: cucumber powdery mildew preventive test; format: in vivo; conditions: Golovinomyces cichoracearum, 168 h, 7 days
Description: as §1, with “cucumber” for “apple”, “Erysiphe cichoracearum” for “Venturia inaequalis”, “7” for “10-12”, “burn or growth reduction” for “burn”

Erisyphe cichoracearum = experiment: cucumber powdery mildew curative test; format: in vivo; conditions: Cucumis sativus, 144 h, sprayed day after inoculation, additional 6 days
Text: Cucumber plants are inoculated with a spore suspension of the fungus Erisyphe cichoracearum and in a growth room overnight. The following day, the plants are sprayed to the point of run-off with a suspension prepared by dissolving compounds of this invention in acetone in an amount equal to 6% of the final volume and then suspended at a concentration of 20 ppm in purified water containing 25 ppm of the surfactant Alkanol® XC (sodium alkyl naphthalene sulfonate). Plants are returned to the growth room for an additional 6 days when disease ratings are then made. […] Phytotoxicity in the form of foliar burn or growth reduction was observed on some of the plants in association with disease control.

Erysiphe cichoracearum [5] = experiment: cucumber powdery mildew residual wash-off test; format: in vivo; conditions: Golovinomyces cichoracearum, 168 h, 1/2 inch simulated rainfall, 7 days
Description: Compounds of this invention are dissolved in acetone in an amount equal to 6% of the final volume and then suspended at a concentration of 20 ppm in purified water containing 25 ppm of the surfactant Alkanol® XC (sodium alkyl naphthalene sulfonate). This suspension is sprayed to the point of run-off on cucumber seedlings. The following day, 1/2 inch of simulated rainfall is applied to the foliage of the plants. When the foliage is dry, the plants are inoculated with a spore suspension on the fungus Erysiphe cichoracearum and incubated in a growth room for 7 days. Disease ratings are then made.

Erysiphe cichoracearum [6] = experiment: cucumber powdery mildew photostability test; format: in vivo; conditions: Golovinomyces cichoracearum, 168 h, xenon arc 3500 foot candles 16 hours, 7 days
Description: Compounds of this invention are dissolved in acetone in an amount equal to 6% of the final volume and then suspended at a concentration of 20 ppm in purified water containing 25 ppm of the surfactant Alkanol® XC (sodium alkyl naphthalene sulfonate). This suspension is sprayed to the point of run-off in cucumber seedlings. When the foliage is dry, the plants are exposed to 3500 foot candles of light from a xenon arc source for a period of 16 hours. This light source approximates the spectrum of natural sunlight, and is used to assess photostability of the compounds of this invention on plant foliage. The following day, the plants are inoculated with a spore suspension of the fungus Erysiphe cichoracearum and incubated in a growth room for 7 days. Disease ratings are then made.

[7] = system: Puccinia graminis var. tritici; experiment: whole plant or invertebrate; format: in vivo; conditions: 192 h, read-out: % control wheat rust in preventive test
[8] = system: Puccinia graminis var. tritici; experiment: whole plant or invertebrate; format: in vivo; conditions: 192 h, read-out: % control wheat rust in residual wash-off test
[9] = system: Puccinia graminis var. tritici; experiment: whole plant or invertebrate; format: in vivo; conditions: 192 h, read-out: % control wheat rust in a photostability test
Phytophthora infestans [10] = experiment: whole plant or invertebrate; format: in vivo; conditions: in Solanum lycopersicum, 96 h, read-out: % control tomato late blight in a residual wash-off test
Phytophthora infestans [11] = experiment: whole plant or invertebrate; format: in vivo; conditions: in Solanum lycopersicum, 96 h, read-out: % control tomato late blight in a photostability test
Rhizopus = experiment: Rhizopus-corn meal mixture overspray test; conditions: 168 h, read-out: % control Rhizopus
Description: Compounds of this invention were dissolved in acetone in an amount equal to 6% of final volume and then suspended at a concentration of 100 ppm in purified water containing 500 ppm of the surfactant Alkanol® XC (sodium alkyl naphthalene sulfonate). This solution was oversprayed on a Rhizopus-corn meal mixture in 6 cm aluminum cups. The sprayed plates were placed in a closed plastic bag, stored at 20° C. for 7 days, and then rated.
The untreated cups were completely covered with Rhizopus mycelial growth, but the treated cups were mostly free of growth by this disease-causing organism.

Sclerotinia sclerotiorum = experiment: white mold on carrot sections dip test; conditions: 100 ppm dip, 20° C., six days
Description: Surface-sterilized carrot sections were dipped two minutes in a 100 ppm solution of the compounds of this invention. Additional sections were dipped in a check solution which contained 500 ppm Alkanol® XC (sodium alkyl naphthalene sulfonate). After inoculation by placing a mycelial plug of Sclerotinia sclerotiorum on each carrot section, the test was held at 20° C. for six days.
The untreated carrot sections were completely invaded with the mycelial growth of white mold fungus, but the treated sections had little or no growth by this disease causing organism.

[12] = system: organo-phosphorous resistant two-spotted spider mites; experiment: organo-phosphorous resistant two-spotted spider mites on bean plants, spray, mortality after two days; conditions: Tetranychus urticae, 48 h, read-out: % Mortality (2 days)
[13] = system: Eggs of the beet armyworm (Spodoptera exigua); experiment: beet armyworm egg (ovicidal) test, % eggs failing to hatch; format: in vivo; conditions: 72 h, 200 ppm in acetone, three days, read-out: % Control (% eggs failing to hatch)
Description: Eggs of the beet armyworm (Spodoptera exigua), laid on cellophane discs each containing 50-75 eggs, were placed in petri dishes and lightly sprayed with 1% concentrations of the indicated compounds in acetone solution. Three days later, percent control (% eggs failing to hatch) was determined.
Eggs of the beet armyworm (Spodoptera exigua), laid on cellophane discs each containing 50-75 eggs, were placed in petri dishes and lightly sprayed with 200 ppm concentration of the indicated compounds in acetone solution. Three days later, percent control (% eggs failing to hatch) was determined.

[14] = system: adult cotton boll weevils (Anthonomus grandis); experiment: adult cotton boll weevils spray test; format: in vivo; conditions: 1% acetone solution, 24 hours
Description: Five adult cotton boll weevils (Anthonomus grandis) were confined in a 4-oz. wide mouth jar. These were sprayed with a 1% acetone solution of the indicated compounds. Percent mortality after 24 hours is set forth below.

adult houseflies = adult houseflies spray test; format: in vivo, housefly; conditions: Musca domestica; 1% acetone solutions, 24 hours
Text: Twenty adult houseflies were confined in each of several cylindrical stainless steel cages (7.5 cm D×4 cm high) with wire screens of the ends. These were sprayed with 1% acetone solutions of the indicated compounds.

[15] = system: red-legged grasshoppers (Melanoplus femurrubrum); experiment: red-legged grasshoppers spray test; format: in vivo; conditions: 10 ppm in acetone, 48 hours
Description: Five red-legged grasshoppers (Melanoplus femurrubrum) were confined in each of several cylindrical stainless steel cages (7.5 cm D×4 cm high) with wire screens at the end. These were sprayed with 10 ppm concentration of the indicated compounds in acetone solution. Percent mortality after 48 hours is recorded below.

[16] = system: brown dog ticks (Rhipicephalus sanguineus); experiment: brown dog ticks spray test; format: in vivo; conditions: 48 h, 12.5 ppm in acetone, forty eight hours
Description: Four-ounce wide mouth jars, each containing 10 brown dog ticks (Rhipicephalus sanguineus), were sprayed with 12.5 ppm concentration of the indicated compounds in acetone solution. The ticks were confined with caps which were also sprayed. Forty eight hours later, percent mortality was determined.

Cc1ccc(S(=O)(=O)N(SN(c2cc(C(F)(F)F)ccc2Cl)c2c([N+](=O)[O-])cc([N+](=O)[O-])cc2C(F)(F)F)C(C)C)cc1
mortality at 0.00025 % (two-spotted mites; spray concentration .00025%): 100%
mortality at 0.0005 % (two-spotted mites; spray concentration .0005%): 100%
mortality at 0.001 % (two-spotted mites; spray concentration .001%): 100%
pest or weed control at 20 ppm (Venturia inaequalis [1]): 100%
pest or weed control at 20 ppm (Venturia inaequalis [2]): 100%
pest or weed control at 20 ppm (Venturia inaequalis [3]): 0%
pest or weed control at 20 ppm (Erysiphe cichoracearum [4]): 100%
pest or weed control at 20 ppm (Erisyphe cichoracearum): 90%
pest or weed control at 20 ppm (Erysiphe cichoracearum [5]): 99%
pest or weed control at 20 ppm (Erysiphe cichoracearum [6]): 40%
pest or weed control at 20 ppm [7]: 100%
pest or weed control at 20 ppm [8]: 97%
pest or weed control at 20 ppm [9]: 80%
pest or weed control at 20 ppm (Phytophthora infestans [10]): 100%
pest or weed control at 20 ppm (Phytophthora infestans [11]): 90%
inhibition of growth at 100 ppm (Rhizopus): 100%
% control White Mold (Sclerotinia sclerotiorum): 100%
mortality at 0.0005 % [12]: 83%
mortality at 0.001 % [12]: 99%
mortality at 0.002 % [12]: 99%

CCCCN(SN(c1cc(C(F)(F)F)ccc1Cl)c1c([N+](=O)[O-])cc([N+](=O)[O-])cc1C(F)(F)F)S(=O)(=O)c1ccccc1
mortality at 200 ppm [13]: 100%
mortality at 1 % [14]: 100%
mortality at 1 % (adult houseflies): 100%
mortality at 10 ppm [15]: 100%
mortality at 12.5 ppm [16]: 100%
pest or weed control at 20 ppm (Venturia inaequalis [1]): 100%
pest or weed control at 20 ppm (Venturia inaequalis [2]): 100%
pest or weed control at 20 ppm (Venturia inaequalis [3]): 0%
pest or weed control at 20 ppm (Erysiphe cichoracearum [4]): 100%
pest or weed control at 20 ppm (Erisyphe cichoracearum): 50%
pest or weed control at 20 ppm (Erysiphe cichoracearum [5]): 98%
pest or weed control at 20 ppm (Erysiphe cichoracearum [6]): 0%
pest or weed control at 20 ppm [7]: 100%
pest or weed control at 20 ppm [8]: 97%
pest or weed control at 20 ppm [9]: 90%
pest or weed control at 20 ppm (Phytophthora infestans [10]): 100%
pest or weed control at 20 ppm (Phytophthora infestans [11]): 90%
% control White Mold (Sclerotinia sclerotiorum): 86%
